Where two headings read alike, the source gives them in different places.
Legend:
[1] = system: linear double-stranded HexARev DNA fragment; experiment: DNA cleavage assay, HexARev fragment; type: biochemical; conditions: ligand concentration 10 μM and 100 nM (FIG. 16)
Method: The ability of a further series of compounds 13, 42, 59, 99 and the PBD dimer Talirine to cross-link DNA was determined using an assay involving a linear double-stranded HexARev fragment (FIG. 15).
The ability of 13 and of a series of compounds to cleave double-stranded DNA was investigated using a modification of the previously established DNA footprinting assay (34). Following an overnight incubation of the ligand-DNA complexes, the mixture was mixed with strand separation buffer containing 10 mM EDTA, 10 mM NaOH, 0.1% bromophenol blue, 80% formamide and incubated at 100° C. for 3 min. The mixture was then immediately cooled on ice and run on an 8% denaturing gel. […] Using the GA marker, these additional bands were identified as cleavage products produced by 13 at certain A sites of the DNA fragment.
The preparation of the TyrT DNA fragment (FIG. 8) and HexARev DNA fragment (FIG. 15) have been previously described (34). Briefly, the sequence which had been cloned into the BamHI site of pUC18 was obtained by cutting with HindIII and EcoRI. Radiolabelled DNA fragments were prepared by filling in the 3′-end of the HindIII site with [α-^32P]dATP using Klenow DNA polymerase (exo-).
The radiolabelled DNA fragment was separated from the remainder of the plasmid DNA on a 6% non-denaturing polyacrylamide gel. The gel (20 cm long, 0.3 mm thick) was run at 400 V in 1×TBE running buffer for about 1-2 h, until the bromophenol blue had run most of the way down the gel. The glass plates were separated and the position of the labelled DNA fragment was established by short (1 min) exposure to an X-ray film. The relevant band was then cut from the gel and the radiolabelled DNA eluted by adding 300 μL 10 mM Tris-HCl, pH 7.5 containing 0.1 mM EDTA and gently agitating overnight at room temperature. The eluted DNA was finally precipitated with ethanol and re-suspended in a suitable volume of 10 mM Tris-HCl, pH 7.5 containing 0.1 mM EDTA buffer so as to give at least 10 counts per second/μL on a hand-held Geiger counter. With fresh plasmid and α-^32P-dATP this process typically generated about 150 μL of radiolabelled fragment DNA. The absolute concentration of the DNA is not important, and it is typically lower than 10 nM.
Compounds such as 13 were synthesised as described above and the PBD dimer Talirine was obtained from Aurum Pharmatech LLC. Stock solution was prepared by dissolving the ligands in DMSO to give a concentration of 10 mM. From this stock solution, working solutions of the desired concentration were prepared by diluting with 10 mM Tris-HCl, pH 7.5 containing 10 mM NaCl.
Radiolabelled DNA (1.5 μL) was mixed with 1.5 μL ligand solution of various concentrations (10 μM-10 nM) and incubated overnight at 37° C.
Labelled DNA (1.5 μL) was mixed with 20 μL sterile water and 5 μL of denaturing loading solution (80% formamide containing 10 mM EDTA, 10 mM NaOH, 0.01% bromophenol blue). The sample was then incubated at 100° C. for 20 min with the micro-centrifuge tube cap open to allow evaporation.
Loading solution (4.5 μL) was added to samples from Section 2.1. The digestion products were boiled for 3 min at 100° C. and quickly cooled on ice prior to electrophoresis. Separation was performed on an 8% denaturing polyacrylamide gel (40 cm long, 0.3 mm thick) at 1500V for about 2 h until the dye reached the bottom of the gel. […]

[2] = system: FaDu (head and neck cancer) cell line; experiment: MTT cytotoxicity assay, FaDu; type: cell-based; conditions: Homo sapiens, MTT assay, 72 hour incubation
Method: (§1) Tumor cell lines were maintained in RPMI1640 medium supplemented with 10% heat-inactivated fetal bovine serum, 2 mM L-glutamine and 1 mM sodium pyruvate. 1800 cells per well were seeded in a volume of 180 μl in a 96-well flat bottom polystyrene plate. The cells were allowed to adhere overnight at 37° C. in a CO2 incubator. Ligands were initially formulated in DMSO, and stocks stored at −80° C. They were then further formulated at lox concentration in RPMI1640 medium. 20 ul of diluted samples were added into each treatment well. On each plate, blank wells with no cells, and untreated wells containing cells, were included. Plates were then cultured at 37° C. in a CO2 incubator for 72 hrs. Cytotoxicity was evaluated using a tetrazolium salt-based assay, the MTT assay. After 72 hours, the supernatant was removed from each well and 200 μl of a sterile filtered 500 μg/ml MTT solution in water added to each well. The plates were then incubated at 37° C. in a CO2 incubator for 4 hrs. The supernatant was then removed and the formazan crystals formed solubilized by adding 150 μl of DMSO to each well. The plate was then read on a plate reader at 540 nm, and percentage cell survival calculated as follows: ((mean absorbance treated wells at concentration x−mean absorbance blank wells)[…](mean absorbance untreated wells at concentration x−mean absorbance blank wells))×100. Data were plotted as concentration in nM vs. % cell survival in Microsoft Excel, and IC50 values (concentration where cell survival is reduced by a half) were determined from the graph.

[3] = system: PC3 (prostate) cell line; experiment: MTT cytotoxicity assay, PC3; type: cell-based; conditions: MTT assay, 72 hour incubation, read-out: Cytotoxicity PC3 (nM, 72 hour)
Method: as §1

Structure (SMILES)	cleavage of HexARev DNA fragment [1]	IC50 ([2]; read-out: Cytotoxicity FaDu (nM, 72 hour))	IC50 [3]	IC50 ([2]; read-out: IC50 value in FaDu)
COc1cc2c(cc1OCCCC(=O)N1C[C@@H](CCl)c3c1cc(O)c1ccccc31)N=C[C@@H]1CCCCN1C2=O [Compound 13, (S)-3-(4-((S)-1-(Chloromethyl)-5-hydroxy-1,2-dihydro-3H-benzo[e]indol-3-yl)-4-oxobutoxy)-2-methoxy-7,8,9,10-tetrahydrobenzo[e]-pyrido[1,2-a][1,4]diazepin-12(6aH)-one]	cleave DNA	1.17 nM	1.43 nM	
COc1cc2c(cc1OCc1cccc(CC(=O)N3C[C@@H](CCl)c4c3cc(O)c3ccccc43)c1)N=C[C@@H]1CCCCN1C2=O [Compound 42, (S)-3-((3-(2-((S)-1-(Chloromethyl)-5-hydroxy-1,2-dihydro-3H-benzo[e]indol-3-yl)-2-oxoethyl)benzyl)oxy)-2-methoxy-7,8,9,10-tetrahydrobenzo[e]pyrido[1,2-a][1,4]diazepin-12(6aH)-one]	cleave DNA		0.03 nM	0.01 nM

— patent US20240002379A1, “ASYMMETRIC CONJUGATE COMPOUNDS” (Pheon Therapeutics Ltd., priority 2016, published 2024)
